In patent US11957655B2, “Methods of treating hearing loss” (The Regents of the University of California, priority 2015, dated 2024):

What was measured:
[1] = test system: UPR induction (CHOP and ATF4 mRNA) in HEK293T cells; assay: UPR induction by thapsigargin in HEK293T cells, CHOP and ATF4 mRNA by qPCR; type: cell-based; details: HEK293T cells pretreated with ISRIB vs control formulation, then 1 micromolar thapsigargin
Procedure: In another experiment, HEK293T cells were pretreated with a control formulation or ISRIB, […], then exposed […] to 1 micromolar thapsigargin for 2 hours. CHOP and ATF4 mRNA levels were then assessed by qPCR.

[2] = test system: wild type mice exposed to damaging noise; assay: Noise-induced hearing loss in wild type mice, ABR threshold; type: in vivo, mouse; details: 2.5 mg/kg intraperitoneal 4 hours before damaging noise, treated vs untreated (FIG. 9, N=3)
Procedure: FIG. 9 depicts ABR threshold to click, 8 kHz, and 16 kHz stimuli in mice treated with ISRIB (dotted line, N=3)) compared with vehicle (solid line, N=3). All values are means with error bars indicating the standard error of the mean.
Wild type mice were subjected to the same treatment and cochleae were subsequently removed and apoptotic ER response gene expression was assessed.
ISRIB was delivered […] via intraperitoneal injection 4 hours before exposure to damaging noise, at 2.5 mg/kg.

[3] = test system: SERCA2b; fibroblast cells from TMTC4 KO and wild type mice; assay: UPR stress pathway gene mRNA in fibroblasts treated with thapsigargin; type: cell-based, mouse; details: TMTC4 KO compared to wild type cells
Procedure: Fibroblast cells were generated from TMTC4 KO mice and wild type mice. One group of cells was treated with the SERCA2b inhibitor thapsigargin. The expression of UPR stress pathway genes spliced X-box binding protein 1 (S-XBP1), the molecular chaperone BiP, and the pro-apoptotic protein CHOP were measured by mRNA quantification. The expression of the UPR stress response markers was low and was about equal in untreated wild type and TMTC4 KO cells.

[4] = test system: SERCA2b; cochlear explants from TMTC4 KO and wild type mice; assay: UPR stress pathway and Caspase 3 mRNA in cochlear explants treated with thapsigargin; type: cell-based, mouse; details: thapsigargin treated cochlear explants from TMTC4 KO and wild type mice (FIG. 2)
Procedure: FIG. 2. SYBR Green measurement of qPCR product measuring RNA expression of spliced X-box binding protein 1 (S-XBP1), the molecular chaperone BiP, the pro-apoptotic protein CHOP, and Caspase 3 in cochlear explants from mice. WT=wild type and KO=TMTC4 knockout mice. +TG indicates explants treated with the SERCA2b inhibitor thapsigargin. In another experiment, cochlear explants from TMTC4 KO and wild type mice were extracted. One group of explants was treated with the SERCA2b inhibitor thapsigargin. The expression of UPR stress pathway genes S-XBP1 BiP, CHOP, and the apoptotic gene Caspase 3 were measured by mRNA quantification (FIG. 2). In the untreated explants, the expression of the UPR stress response markers and of Caspase3 were about equal.

[5] = test system: wild type fibroblasts (ER Ca2+); assay: Ca2+ quantification in intracellular compartments of fibroblasts by Mag-FURA-2 imaging; type: cell-based, mouse; details: ten minutes with 1 micromolar ATP and 1 micromolar thapsigargin
Procedure: In one experiment, quantification of Ca2^+ was performed in intracellular compartments of fibroblasts by Mag-FURA-2 imaging. In wild type fibroblasts, an area of high Ca2^+ concentration in the perinuclear region corresponding to the ER was observed. […] Quantification of the Ca2^+ gradient between ER and cytosol compartments in fibroblasts was also measured in both wild type and TMTC4 KO mice.

| Structure (SMILES) | ATF4 mRNA expression [1] | CHOP mRNA expression [1] | ABR threshold to clicks at 8 kHz and 16 kHz [2] | expression of UPR stress response markers (S-XBP1, BiP, CHOP) mRNA [3] | expression of UPR stress response markers (S-XBP1, BiP, CHOP) and Caspase 3 mRNA [4] | Ca2+ concentration of perinuclear region (ER) [5] |
| --- | --- | --- | --- | --- | --- | --- |
| O=C(COc1ccc(Cl)cc1)N[C@H]1CC[C@H](NC(=O)COc2ccc(Cl)cc2)CC1 [ISRIB, trans-N,N′-(cyclohexane-1,4-diyl)bis(2-(4-chlorophenoxy)acetamide)] | significant and substantial reduction | significant and substantial reduction | lower in treated mice than in untreated mice |  |  |  |
| C/C=C(/C)C(=O)O[C@H]1C(C)=C2[C@H]([C@@H]1OC(=O)CCCCCCC)[C@@](C)(OC(C)=O)C[C@H](OC(=O)CCC)[C@@]1(O)[C@H]2OC(=O)[C@@]1(C)O [thapsigargin] |  |  |  | substantially elevated in the TMTC4 KO cells compared to wild type cells | substantially elevated | reduced to that observed in the surrounding cytosol |
